Source: patent US8741570B2, “Thermo-optical characterisation of nucleic acid molecules” (Ludwig-Maximilians-Universitat Munchen, priority 2008, dated 2014)
Blank lines part the entries; values can stand above or below the compound they belong to. {AF700} = Alexa Fluor 700 fluorescent dye

Columns and labels:
[1] = Thermodiffusion (Soret coefficient) by microfluidic fluorescence imaging / single particle tracking; format: physicochemical; details: 50 μM dye in 10 mM TRIS buffer, concentration over time method
bacteriophage lambda DNA = assay: DNA hybridization thermophoresis of labelled probe with lambda DNA; format: binding
Protocol: Typical target molecules are longer than 20 bases and double stranded. For target molecules longer than 20 bases and double stranded, one has to expect a competing reaction between the labeled probe and the target DNA strands containing the same “probe-sequence”. […] The concentration change is determined in samples containing the pure DNA probe and in solutions containing the probe mixed with lambda DNA. We checked twice for the hybridization of probe DNA and lambda DNA. First after simply mixing of the molecules and second after an additional annealing procedure (94° C., 5 min and 72° C., 5 min) was carried out.
The experiment shown in FIG. 38 (b) is performed at a constant concentration of 40 nM probe DNA and 10 nM target DNA. All samples are preferably measured in a 100 μm-1 mm Capillary. The thermo-optical properties of the probe DNA have been determined in an independent experiment, followed by a mix of probe and target. […]
After an equilibration time of preferably 10 seconds a first capillary can be measured. […]
Step 1. […] (The thermo-optical properties (i.e. concentration change) of the free probe molecule is known from an independent experiment. Alternatively the thermo-optical behavior of a DNA molecule similar to the probe, but not complementary to a target molecule, is measured simultaneously in a multiplex approach (internal reference)).
Step 2. […] The immediately established local spatial temperature distribution causes the labeled primers and elongated primers (as well as internal reference standards) to drift to lower or higher temperatures, depending on the particular molecule to be analyzed and conditions like pH, salt concentration etc. […] The maximum temperature elevation is set below values which would harm the molecules to be analyzed or hinder their hybridization. […]
Step 3. During the laser heating an image of the fluorescence distribution is recorded (or multiple frames which may be averaged to a single image). Afterwards the infrared laser and the fluorescence excitation light source are turned off. […]

[2] = at a comparable temperature; cited from earlier work
[3] = Hydration entropy from literature; format: physicochemical; details: linear scaling with surface area using radius a=2 nm
Source text: The intercept ST(λDH=0), where ionic contributions are zero, also scales with particle surface and is described by a hydration entropy per particle surface of shyd=−1400 J/(molKμm^2). The value matches the literature values for similar surfaces reasonably well^30,31. […] Linear scaling with its surface area by using a radius of a=2 nm results in a value of shyd=−2500 J/(molKμm^2), in qualitative agreement with our result. The hydration entropy is a highly informative molecule parameter which is notoriously difficult to measure, yielding an interesting application for thermodiffusion.

Soret coefficient ST [1]: 0.015 /K
Compound: BCECF

Compound: 5′-GATGAGTTCGTGTCCGTACAACTGG-3′ (DNA, 5' {AF700}, backbone and methylation of C not given here) [probe]
concentration change (bacteriophage lambda DNA; free probe, 40 nM): −2%
concentration change (bacteriophage lambda DNA; probe 40 nM mixed with 10 nM lambda DNA, without annealing procedure): −3%
concentration change (bacteriophage lambda DNA; probe 40 nM with 10 nM lambda DNA after denaturing (94° C., 5 min) and annealing (72° C., 5 min)): −10%

hydration entropy per surface shyd [3]: −2500 J/(molKμm^2)
Compound: C[C@H](NS(=O)(=O)c1cccc2c(N(C)C)cccc12)C(=O)O [Dansyl-Alanine]
hydration entropy [2]: −0.13 J/(molK)
